Measured values from patent US10676458B2, “Antidiabetic bicyclic compounds” (Merck Sharp & Dohme Corp., priority 2016, dated 2020).

Biological target: human GPR40 (Homo sapiens (Human), UniProt O14842)
Experiment: Inositol Phosphate Turnover (IP1) Assay
Type: cell-based
Details: HEK cells stably expressing human GPR40; 60 min incubation; CisBio IP-One kit
Description: Human GPR40 stable cell-lines were generated in HEK cells. The expression plasmids were transfected using lipofectamine (Life Technologies) following manufacturer's instructions. Stable cell-lines were generated following drug selection and single cell cloning.
The assay was performed in 384-well format. HEK cells stably expressing human GPR40 were plated at 7500 cells per well in growth medium (DMEM/10% fetal calf serum). Cell plates were then incubated 16 hours at 37 degrees in a 5% CO2 incubator. Measurement of Inositol Phosphate Turnover (IP1) was performed using the CisBio IP-One kit (Part number 62IPAPEB). After the 16 hour incubation, the growth media was removed by centrifugation using the BlueWasher (AusWasher GUI Ver. v1.0.1.8) Protocol #21-“Light Dry” and 10 ul of stimulation buffer (prepared as described in the kit) was added to each well. In a separate plate, compounds were diluted in DMSO (200-fold over the final concentration in the assay well) and 50 nl was acoustically transferred to the appropriate well in the assay cell plate. The plates were then incubated for 60 minutes at 37 degrees in a 5% CO2 incubator. 10 ul of detection buffer (also prepared as described in the IP-One kit) was added to each well and the plates were incubated at room temperature for 60 minutes in the dark. The plates were then read in a Perkin Elmer EnVision or equivalent reader able to measure FRET. Fluorescent ratio of emission at 665 and 620 nm was then converted to IP1 concentration by back calculating from an IP1 standard curve prepared at the time of the assay. Data was normalized to % activity using a reference compound and EC50s determined using a standard 4-paramter fit.

Chain of human GPR40 (O14842 whole entry): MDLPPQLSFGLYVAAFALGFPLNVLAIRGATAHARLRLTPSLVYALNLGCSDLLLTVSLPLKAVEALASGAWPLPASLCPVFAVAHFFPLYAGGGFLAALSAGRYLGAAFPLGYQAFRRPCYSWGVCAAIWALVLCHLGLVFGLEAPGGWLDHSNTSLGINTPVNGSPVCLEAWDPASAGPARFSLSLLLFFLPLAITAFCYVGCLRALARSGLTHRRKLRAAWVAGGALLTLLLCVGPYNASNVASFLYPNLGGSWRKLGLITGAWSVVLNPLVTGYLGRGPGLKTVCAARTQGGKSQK

C[C@H](C(=O)O)[C@H](c1ccc2c(c1)N(C)C(C1CCN(Cc3cc(C(F)(F)F)ccc3C(F)(F)F)CC1)CO2)C1CC1 (single isomer, unassigned) [Example 5, Sodium (2S,3S)-3-((S or R)-3-(1-(2,5-bis(trifluoro-methyl)-benzyl)piperidin-4-yl)-4-methyl-3,4-dihydro-2H-benzo[b]-[1,4]oxazin-6-yl)-3-cyclopropyl-2-methyl propanoate]
EC50: 2.1 µM

COc1ccc(F)c(-c2ccc(C3COc4ccc([C@H](C5CC5)[C@H](C)C(=O)O)cc4N3C)cc2)c1 (single isomer, unassigned) [Example 21, Sodium (2S,3R)-3-cyclopropyl-3-((S or R)-3-(2′-fluoro-5′-methoxy-[1,1′-biphenyl]-4-yl)-4-methyl-3,4-dihydro-2H-benzo[b][1,4]oxazin-6-yl)-2-methyl propanoate]
EC50: 0.012 µM

COc1ccc(F)c(-c2ccc(C3CCc4ccc([C@H](C5CC5)[C@H](C)C(=O)O)cc4N3)cc2)c1 (single isomer, unassigned) [Example 11, Sodium (2S,3R)-3-cyclopropyl-3-((R or S)-2-(2′-fluoro-5′-methoxy-[1,1′-biphenyl]-4-yl)-1,2,3,4-tetrahydroquinolin-7-yl)-2-methylpropanoate]
EC50: 0.00079 µM

COc1ccc(F)c(-c2ccc(C3COc4ccc([C@H](C5CC5)[C@H](C)C(=O)O)cc4N3)cc2)c1 (single isomer, unassigned) [Example 17, Sodium (2S,3R)-3-cyclopropyl-3-((R or S)-3-(2′-fluoro-5′-methoxy-[1,1′-biphenyl]-4-yl)-3,4-dihydro-2H-benzo[b][1,4]oxazin-6-yl)-2-methyl propanoate]
EC50: 0.01 µM

COc1ccc(F)c(-c2ccc(C3COc4ccc([C@H](C5CC5)[C@H](C)C(=O)O)cc4N3C)cc2)c1 (single isomer, unassigned) [Example 20, Sodium (2S,3R)-3-cyclopropyl-3-((R or S)-3-(2′-fluoro-5′-methoxy-[1,1′-biphenyl]-4-yl)-4-methyl-3,4-dihydro-2H benzo-[b][1,4]oxazin-6-yl)-2-methyl propanoate]
EC50: 0.0008 µM

C[C@H](C(=O)O)[C@H](c1ccc2c(c1)CN(C1CCN(Cc3cc(C(F)(F)F)ccc3C(F)(F)F)CC1)CC2)C1CC1 [Example 1, (2S,3R)-3-(2-(1-(2,5-bis(Trifluoromethyl)benzyl)piperidin-4-yl)-1,2,34-tetrahydroisoquinolin-7-yl)-3-cyclopropyl-2-methylpropanoic acid]
EC50: 0.611 µM

C[C@H](C(=O)O)[C@H](c1ccc2c(c1)N(C)C(C1CCN(Cc3cc(C(F)(F)F)ccc3C(F)(F)F)CC1)CC2)C1CC1 (single isomer, unassigned) [Example 8, (2S,3R)-3-((R or S)-2-(1-(2,5-bis(trifluoromethyl)benzyl)piperidin-4-yl)-1-methyl-1,2,3,4-tetrahydroquinolin-7-yl)-3-cyclopropyl-2-methylpropanoic acid]
EC50: 0.439 µM

C[C@H](C(=O)O)C(c1ccc2c(c1)N(C)C(C1CCN(Cc3cc(C(F)(F)F)ccc3C(F)(F)F)CC1)CO2)C1CC1 (single isomer, unassigned) [Example 4, Sodium (2S,3S)-3-((R or S)-3-(1-(2,5-bis(trifluoromethyl)benzyl)piperidin-4-yl)-4-methyl-3,4-di-hydro-2H-benzo[b][1,4]oxazin-6-yl)-3-cyclopropyl-2-methylpropanoate]
EC50: 4.7 µM

COc1ccc(F)c(-c2ccc(C3CCc4ccc([C@H](C5CC5)[C@H](C)C(=O)O)cc4N3C)cc2)c1 (single isomer, unassigned) [Example 14, (2S,3R)-3-cyclopropyl-3-((R or S)-2-(2′-fluoro-5′-methoxy-[1,1′-biphenyl]-4-yl)-1-methyl-1,2,3,4-tetrahydroquinolin-7-yl)-2-methylpropanoic acid]
EC50: 0.001 µM

C[C@H](C(=O)O)[C@H](c1ccc2c(c1)N(C)C(C1CCN(Cc3cc(C(F)(F)F)ccc3C(F)(F)F)CC1)CC2)C1CC1 (single isomer, unassigned) [Example 9, (2S,3R)-3-((S or R)-2-(1-(2,5-bis(trifluoromethyl)-benzyl)piperidin-4-yl)-1-methyl-1,2,3,4-tetrahydroquinolin-7-yl)-3-cyclopropyl-2-methyl propanoic acid]
EC50: 0.289 µM

COc1ccc(F)c(-c2ccc(C3CCc4ccc([C@H](C5CC5)[C@H](C)C(=O)O)cc4N3)cc2)c1 (single isomer, unassigned) [Example 12, (2S,3R)-3-cyclopropyl-3-((S or R)-2-(2′-fluoro-5′-methoxy-[1,1′-biphenyl]-4-yl)-1,2,3,4-tetrahydroquinolin-7-yl)-2-methylpropanoic acid]
EC50: 0.0002 µM

COc1ccc(F)c(-c2ccc(C3COc4ccc([C@H](C5CC5)[C@H](C)C(=O)O)cc4N3)cc2)c1 (single isomer, unassigned) [Example 18, Sodium (2S,3R)-3-cyclopropyl-3-((S or R)-3-(2′-fluoro-5′-methoxy-[1,1′-biphenyl]-4-yl)-3,4-dihydro-2H-benzo[b][1,4]oxazin-6-yl)-2-methyl propanoate]
EC50: 0.0008 µM

C[C@H](C(=O)O)[C@H](c1ccc2c(c1)NC(C1CCN(Cc3cc(C(F)(F)F)ccc3C(F)(F)F)CC1)CC2)C1CC1 (single isomer, unassigned) [Example 6, Sodium (2S,3R)-3-((R or S)-2-(1-(2,5-bis(trifluoromethyl)benzyl)piperidin-4-yl)-1,2,3,4-tetrahydroquinolin-7-yl)-3-cyclopropyl-2-methylpropanoate]
EC50: 0.035 µM

C[C@H](C(=O)O)[C@H](c1ccc2c(c1)NC(C1CCN(Cc3cc(C(F)(F)F)ccc3C(F)(F)F)CC1)CO2)C1CC1 (single isomer, unassigned) [Example 2, Sodium (2S,3S)-3-((R or S)-3-(1-(2,5-Bis(trifluoromethyl)-benzyl)piperidin-4-yl)-3,4-dihydro-2H-benzo[b][1,4]oxazin-6-yl)-3-cyclopropyl-2-methyl propanoate]
EC50: 0.388 µM

COc1ccc(F)c(-c2ccc(C3CCc4ccc([C@H](C5CC5)[C@H](C)C(=O)O)cc4N3C)cc2)c1 (single isomer, unassigned) [Example 15, (2S,3R)-3-cyclopropyl-3-((S or R)-2-(2′-fluoro-5′-methoxy-[1,1′-biphenyl]-4-yl)-1-methyl-1,2,3,4-tetrahydroquinolin-7-yl)-2-methylpropanoic acid]
EC50: 0.012 µM

C[C@H](C(=O)O)[C@H](c1ccc2c(c1)NC(C1CCN(Cc3cc(C(F)(F)F)ccc3C(F)(F)F)CC1)CC2)C1CC1 (single isomer, unassigned) [Example 7, Sodium (2S,3R)-3-((S or R)-2-(1-(2,5-bis(tri-fluoromethyl)-benzyl)-piperidin-4-yl)-1,2,3,4-tetrahydroquin-olin-7-yl)-3-cyclo-propyl-2-methyl propanoate]
EC50: 0.099 µM

C[C@H](C(=O)O)[C@H](c1ccc2c(c1)NC(C1CCN(Cc3cc(C(F)(F)F)ccc3C(F)(F)F)CC1)CO2)C1CC1 (single isomer, unassigned) [Example 3, Sodium (2S,3R)-methyl 3-((S or R)-3-(1-(2,5-bis(trifluoro-methyl)-benzyl)-piperidin-4-yl)-3,4-dihydro-2H-benzo[b]-[1,4]oxazin-6-yl)-3-cyclopropyl-2-methylpropanoate]
EC50: 0.642 µM
